For data set [1], the system named is Cladosporium cucumerinum. In words: Growth inhibition of Cladosporium cucumerinum after 2 to 3 days by bioautographic assay. It is filed as functional, organism-based.
The test system of data set [2] is Artemia salina. The data set is described as follows: Toxicity against Artemia salina. Format: organism-based. To be noted: in vivo.
In data set [3] the test system is Cladosporium cucumerinum. The data set is described as follows: Antifungal activity against Cladosporium cucumerinum at 1.5 to 50 ug/spot after 2 to 3 days by bioautographic assay. It is filed as functional.

As a reminder, the LC50 is the concentration lethal to half of the exposed cells or organisms. As for `C=C(C)CCC[C@]1(C)OC(=O)[C@]23CC=C4[C@@H](CC[C@H]5C(C)(C)[C@@H](O[C@@H]6OC[C@@H](O)[C@H](O)[C@H]6O[C@@H]6O[C@H](C)[C@@H](O[C@@H]7O[C@H](CO)[C@@H](O)[C@H](O[C@@H]8O[C@H](CO)[C@@H](O)[C@H](OC)[C@H]8O)[C@H]7O)[C@H](O)[C@H]6O)CC[C@]45C)[C@]2(C)CC(=O)[C@@H]31` [DESULFATED HEMOIEDEMOSIDE A], the Activity result in data set [1] was “Dose-dependent effect”. The LC50 in data set [2] came to 424.5 ppm.
In the case of `C=C(C)CCC[C@]1(C)OC(=O)[C@]23CC=C4[C@@H](CC[C@H]5C(C)(C)[C@@H](O[C@@H]6OC[C@@H](OS(=O)(=O)[O-])[C@H](O)[C@H]6O[C@@H]6O[C@H](C)[C@@H](O[C@@H]7O[C@H](COS(=O)(=O)[O-])[C@@H](O)[C@H](O[C@@H]8O[C@H](CO)[C@@H](O)[C@H](OC)[C@H]8O)[C@H]7O)[C@H](O)[C@H]6O)CC[C@]45C)[C@]2(C)CC(=O)[C@@H]31.[Na+].[Na+]` [HEMOIEDEMOSIDE A], the Activity result in data set [1] is “Dose-dependent effect”. For the same compound, the “inhibition zone (IZ)” value in data set [3] is 8 mm. In data set [2], this compound gave a median lethal concentration (LC50) of 18.7 ppm.
For the compound `CO[C@@H]1[C@@H](O)[C@H](O[C@@H]2[C@@H](O)[C@H](O[C@H]3[C@H](O)[C@@H](O)[C@H](O[C@H]4[C@H](O[C@H]5CC[C@]6(C)[C@@H]7C[C@H](O)[C@]89C(=O)O[C@@](C)(CCCC(C)C)[C@@]8(O)CC[C@@]9(C)C7=CC[C@H]6C5(C)C)OC[C@@H](OS(=O)(=O)[O-])[C@@H]4O)O[C@@H]3C)O[C@H](COS(=O)(=O)[O-])[C@H]2O)O[C@H](CO)[C@H]1O.[Na+].[Na+]` [PATAGONICOSIDE A], in data set [3], the “inhibition zone (IZ)” value is reported as 8 mm.

The values are drawn from ChEMBL document CHEMBL1150590, “Cytotoxic and antifungal triterpene glycosides from the Patagonian sea cucumber Hemoiedema spectabilis” (J Nat Prod, 2002).
